The text below walks through data of US6380218B1, “Nicotinamide derivatives” (Pfizer Inc, priority 1997, dated 2002).

For orientation: melting point means the temperature, or range, at which the solid turns liquid. For the compound `CC(=O)C1CCC(CNC(=O)c2cccnc2Oc2ccc(F)cc2)CC1` (stereo not drawn) [Example 229, N-(4-Acetyl-cyclohexylmethyl)-2-(4-fluoro-phenoxy)-nicotinamide], the melting point fell in the range of 110 to 111 °C.

As to `CC(C)(O)c1cc(Cl)c(CNC(=O)c2cccnc2Oc2ccc(F)cc2)s1` [Example 84, N-[3-Chloro-5-(1-hydroxy-1-methyl-ethyl)-thiophen-2-ylmethyl]-2-(4-fluoro-phenoxy)-nicotinamide], the melting point was in the range of 85 to 87 °C.

On to `O=C(NCc1ccc(C2(O)CCC2)cc1)c1cccnc1Oc1cccnc1` [Example 42, N-[4-(1-Hydroxy-cyclobutyl)-benzyl]-2-(pyridin-3-yloxy)-nicotinamide], for which the melting point lay within 116 to 118 °C.

For the compound `CC(C)(O)c1ccc(CNC(=O)c2cccnc2Oc2ccc(F)cc2F)cc1` [Example 230, 2-(2,4-Difluoro-phenoxy)-N-[4-(1-hydroxy-1-methyl-ethyl)-benzyl]-nicotinamide], the melting point is 92 to 94 °C.

On to `O=C(NCc1sccc1Cl)c1cccnc1Oc1ccc(F)cc1` [Example 69, N-(3-Chloro-thiophen-2-ylmethyl)-2-(4-fluoro-phenoxy)-nicotinamide], for which the melting point was in the range of 134 to 136 °C.

As to `CC(C)(O)c1ccc(CNC(=O)c2cccnc2Oc2ccc(F)c(F)c2)cc1` [Example 231, 2-(3,4-Difluoro-phenoxy)-N-[4-(1-hydroxy-1-methyl-ethyl)-benzyl]-nicotinamide], the melting point lay in the range of 98 to 100 °C.

Compound `O=C(NCc1ccccc1Cl)c1cccnc1Oc1ccc(F)cc1F` [Example 10, N-(2-Chloro-benzyl)-2-(2,4-difluoro-phenoxy)-nicotinamide] came in with a melting point of 122 to 124 °C.

In turn, `CC[C@H](C)NC(=O)c1cccnc1Oc1cccnc1` [Example 176, (S)-N-sec-Butyl-2-(pyridin-3-yloxy)-nicotinamide] registered a melting point of 64 to 65 °C.

In turn, `CC(=O)c1cccc(Oc2ncccc2C(=O)NCc2ccc(C(C)(C)O)cc2Cl)c1` [Example 235, 2-(3-Acetyl-phenoxy)-N-[2-chloro-4-(1-hydroxy-1-methyl-ethyl)-benzyl]-nicotinamide] returned a melting point of 102 to 104 °C.

Regarding `O=C(NCC1CCCCC1)c1cccnc1Oc1cncc(Cl)c1` [Example 58, 2-(5-Chloro-pyridin-3-yloxy)-N-cyclohexylmethyl-nicotinamide], the melting point was in the range of 95 to 97 °C.

Take `O=C(NCc1ccccc1Cl)c1cccnc1Oc1cccc(Cl)c1` [Example 189, N-(2-Chloro-benzyl)-2-(3-chloro-phenoxy)-nicotinamide]: the melting point was in the range of 126 to 128 °C.

`CC(C)(O)c1ccc(CNC(=O)c2cccnc2Oc2cccc(S(C)(=O)=O)c2)cc1` [Example 207, N-[4-(1-Hydroxy-1-methyl-ethyl)-benzyl]-2-(3-methanesulfonyl-phenoxy)-nicotinamide] came in with a melting point of 51 to 53 °C.

Consider `O=C(NCc1ccc(N2CCCC2)cc1)c1cccnc1Oc1ccc(F)cc1` [Example 89, 2-(4-Fluoro-phenoxy)-N-(4-pyrrolidin-1-yl-benzyl)-nicotinamide], for which the melting point lay in the range of 127 to 128 °C.

With `N#Cc1ccc(Oc2ncccc2C(=O)NCc2ccccc2Cl)cc1` [Example 119, N-(2-Chloro-benzyl)-2-(4-cyano-phenoxy)-nicotinamide], the melting point is 112 to 114 °C.

Compound `CS(=O)(=O)Nc1ccc(CNC(=O)c2cccnc2Oc2ccc(F)cc2)cc1` [Example 131, 2-(4-Fluoro-phenoxy)-N-(4-methanesulfonylamino-benzyl)-nicotinamide] yielded a melting point of 107 to 109 °C.

In turn, `O=C(NCc1ccc(F)cc1)c1cccnc1Oc1cccnc1` [Example 28, N-(4-Fluoro-benzyl]-2-(pyridin-3-yloxy)-nicotinamide] yielded a melting point of 129 to 131 °C.

Compound `O=C1Cc2cc(CNC(=O)c3cccnc3Oc3ccc(F)cc3)ccc2N1` [Example 73, 2-(4-Fluoro-phenoxy)-N-(2-oxo-2,3-dihydro-1H-indol-5-ylmethyl)-nicotinamide] had a melting point of 180 to 182 °C.

On to `O=C(Cc1ccccc1Cl)Nc1cccnc1Oc1cccnc1` [Example 185, 2-(2-Chloro-phenyl)-N-[2-(pyridin-3-yloxy)-pyridin-3-yl]-acetamide], for which the melting point lay in the range of 137 to 139 °C.

With `CCOC(=O)c1cc2cc(CNC(=O)c3cccnc3Oc3ccc(F)cc3)ccc2[nH]1` [Example 75, 5-({[2-(4-Fluoro-phenoxy)-pyridine-3-carbonyl]-amino}-methyl)-1H-indole-2-carboxylic acid ethyl ester], the melting point fell in the range of 185 to 187 °C.

In turn, `O=C(NCc1cccs1)c1cccnc1Oc1ccc(F)cc1` [Example 1, 2-(4-Fluoro-phenoxy)-N-thiophen-2-ylmethyl-nicotinamide] showed a melting point of 89 to 91 °C.

`COc1cccc(Oc2ncccc2C(=O)NCc2ccc(S(N)(=O)=O)cc2)c1` [Example 200, 2-(3-Methoxy-phenoxy)-N-(4-sulfamoyl-benzyl)-nicotinamide] yielded a melting point of 142 to 143 °C.

For `CC(NC(=O)c1cccnc1Oc1ccc(F)cc1)c1ccc(Cl)s1` (stereo not drawn) [Example 8, N-[1-(5-Chloro-thiophen-2-yl)-ethyl]-2-(4-fluoro-phenoxy)-nicotinamide], the melting point was in the range of 87 to 89 °C.

For `O=C(NCc1ccc(O)cc1)c1cccnc1Oc1ccc(F)cc1` [Example 103, 2-(4-Fluoro-phenoxy)-N-(4-hydroxy-benzyl)-nicotinamide], the melting point was 185 to 187 °C.

`CC(=O)c1cccc(Oc2ncccc2C(=O)NCc2ccc(C(C)(C)O)cc2)c1` [Example 221, 2-(3-Acetyl-phenoxy)-N-[4-(1-hydroxy-1-methyl-ethyl)-benzyl]-nicotinamide] returned a melting point of 52 to 54 °C.

Regarding `O=C1Cc2cc(CNC(=O)c3cccnc3Oc3cccnc3)ccc2N1` [Example 33, N-(2-Oxo-2,3-dihydro-1H-indol-5-ylmethyl)-2-(pyridin-3-yloxy)-nicotinamide], the melting point was in the range of 109 to 111 °C.

Turning to `CC(C)(O)C1CCC(CNC(=O)c2cccnc2Oc2ccc(F)cc2)CC1` (stereo not drawn) [Example 245, 2-(4-Fluoro-phenoxy)-N-[4-(1-hydroxy-1-methyl-ethyl)-cyclohexylmethyl]-nicotinamide], the melting point lay in the range of 78 to 80 °C.

Consider `CCOC(=O)C1CCC(CNC(=O)c2cccnc2Oc2cccc(C(N)=O)c2)CC1` (stereo not drawn) [Example 295, 4-({[2-(3-Carbamoyl-phenoxy)-pyridine-3-carbonyl]-amino}-methyl)-cyclohexanecarboxylic acid ethyl ester], for which the melting point lay within 160 to 162 °C.

The compound `CC(=O)c1cc(Cl)cc(Oc2ncccc2C(=O)NCc2ccc(C(C)(C)O)cc2)c1` [Example 305, 2-(3-Acetyl-5-chloro-phenoxy)-N-(4-(1-Hydroxy-1-methyl-ethyl)-benzyl)-nicotinamide] came in with a melting point of 110 to 112 °C.

Regarding `O=C(CCc1cc(F)cc(F)c1)c1cccnc1Oc1ccc(F)cc1` [Example 254, 3-(3,5-Difluoro-phenyl)-1-[2-(4-fluoro-phenoxy)-pyridin-3-yl]-propan-1-one], the melting point was 69 to 70 °C.

For `Cc1noc2ccc(Oc3ncccc3C(=O)NCc3ccc(C(C)(C)O)cc3)cc12` [Example 316, N-(4-(1-Hydroxy-1-methyl-ethyl)-benzyl)-2-(3-methyl-benzo(d)-isoxazol-5-yloxy)-nicotinamide], the melting point lay in the range of 128 to 130 °C.
